Experimental data reported in PubChem BioAssay (NCI).
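Each compound was tested at five concentrations against cells in 96-well plates for 48 hours. GI50 marks 50% less growth. TGI: concentration producing complete growth inhibition.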

Columns and labels:
Experiment in all cases: growth of human tumour cells (NCI), 48 h
[1] = system: NCI-H522 lung
[2] = system: BT-549 breast
[3] = system: NCI-H460 lung
[4] = system: UACC-257 melanoma
[5] = system: MALME-3M melanoma
[6] = system: HS 578T breast
[7] = system: LOX IMVI melanoma
[8] = system: A549 NSCLC
[9] = system: KM12 colon
[10] = system: OVCAR-3 ovarian
[11] = system: EKVX NSCLC
[12] = system: OVCAR-5 ovarian
[13] = system: SN12C renal
[14] = system: M14 melanoma
[15] = system: SF-539 CNS
[16] = system: SF-295 CNS
[17] = system: SW-620 colon
[18] = system: COLO 205 colon
[19] = system: SK-OV-3 ovarian
[20] = system: SK-MEL-5 melanoma
[21] = system: HCT-116 colon
[22] = system: DU-145 prostate
[23] = system: K-562 leukemia
[24] = system: RPMI-8226 leukemia
[25] = system: NCI/ADR-RES ovarian
[26] = system: CAKI-1 renal
[27] = system: SR leukemia
[28] = system: SNB-75 CNS
[29] = system: T-47D breast
[30] = system: MDA-N
[31] = system: SNB-19 CNS
[32] = system: UACC-62 melanoma
[33] = system: 786-0 renal
[34] = system: OVCAR-4 ovarian
[35] = system: OVCAR-8 ovarian
[36] = system: PC-3 prostate
[37] = system: CCRF-CEM leukemia
[38] = system: HL-60(TB) leukemia
[39] = system: TK-10 renal
[40] = system: HOP-92 NSCLC
[41] = system: HOP-62 NSCLC
[42] = system: RXF 393 renal
[43] = system: MCF7 breast
[44] = system: SK-MEL-28 melanoma
[45] = system: ACHN renal
[46] = system: HT29 colon
[47] = system: HCT-15 colon
[48] = system: A498 renal
[49] = system: IGROV1 ovarian
[50] = system: HCC-2998 colon
[51] = system: U251 CNS
[52] = system: NCI-H23 lung
[53] = system: UO-31 renal
[54] = system: NCI-H226 lung
[55] = system: SF-268 CNS
[56] = system: MDA-MB-231 breast
[57] = system: SK-MEL-2 melanoma
[58] = system: MDA-MB-435
[59] = system: MOLT-4 leukemia

## COc1ccc2c(c1)/C(=C\c1c(Cl)[nH]c3cc(C)c(OC)cc13)C(=O)N2
[1]
  TGI: 6.78 µM
[2]
  TGI: 7.95 µM
[3]
  TGI: 8.7 µM
[4]
  TGI: 20.6 µM
[5]
  TGI: 19.2 µM
[6]
  TGI: > 50.7 µM
[7]
  TGI: 8.45 µM
[8]
  TGI: 18.2 µM
[9]
  TGI: 5.06 µM
[10]
  TGI: 1.71 µM
[11]
  TGI: 16.5 µM
[12]
  TGI: 14.1 µM
[13]
  TGI: 10.7 µM
[14]
  TGI: 5.63 µM
[15]
  TGI: 1.24 µM
[16]
  TGI: 13.4 µM
[17]
  TGI: > 40.1 µM
[18]
  TGI: 5.69 µM
[19]
  TGI: 3.07 µM
[20]
  TGI: 8.7 µM
[21]
  TGI: 6.36 µM
[22]
  TGI: 5.98 µM
[23]
  TGI: 27.7 µM
[24]
  TGI: 27.6 µM
[25]
  TGI: 4.04 µM
[26]
  TGI: 20.4 µM
[27]
  TGI: 2.58 µM
[28]
  TGI: 4.9 µM
[29]
  TGI: 40.5 µM
[30]
  TGI: 2.13 µM
[31]
  TGI: 12.8 µM
[32]
  TGI: 15.9 µM
[33]
  TGI: 13 µM
[34]
  TGI: 16.2 µM
[35]
  TGI: 8.22 µM
[36]
  TGI: 8.27 µM
[37]
  TGI: > 35.5 µM
[38]
  TGI: 2.46 µM
[39]
  TGI: 15.9 µM
[40]
  TGI: 22.4 µM
[41]
  TGI: 23 µM
[42]
  TGI: 7.67 µM
[43]
  TGI: 16.7 µM
[44]
  TGI: 29 µM
[45]
  TGI: 17.3 µM
[46]
  TGI: 7.27 µM
[47]
  TGI: 5.96 µM
[48]
  TGI: 20.2 µM
[49]
  TGI: 5.3 µM
[50]
  TGI: 6.19 µM
[51]
  TGI: 5.55 µM
[52]
  TGI: 2.9 µM
[53]
  TGI: 19.2 µM
[54]
  TGI: > 100 µM
[55]
  TGI: 8.77 µM
[56]
  TGI: 13.7 µM
[57]
  TGI: 18.5 µM
[58]
  TGI: 0.596 µM
[59]
  TGI: 13.7 µM

## CCOC(=O)/C=C(\C(=O)OCC)n1cc(C)c(=O)n(Cc2cn(CCCCOC(C)=O)nn2)c1=O
[1]
  TGI: 3.01 µM
[2]
  TGI: 23.1 µM
[3]
  TGI: 26 µM
[4]
  TGI: 30.5 µM
[5]
  TGI: 4.16 µM
[6]
  TGI: 42.3 µM
[7]
  TGI: 23.1 µM
[8]
  TGI: 36.1 µM
[9]
  TGI: 33.3 µM
[10]
  TGI: 31.5 µM
[11]
  TGI: 24.2 µM
[12]
  TGI: 27.1 µM
[13]
  TGI: > 56.7 µM
[14]
  TGI: 27 µM
[15]
  TGI: 5.17 µM
[16]
  TGI: 35.5 µM
[17]
  GI50: 5 µM
  TGI: 31.8 µM
[18]
  TGI: 8.91 µM
[19]
  TGI: > 70.7 µM
[20]
  TGI: > 53.1 µM
[21]
  TGI: 27.6 µM
[22]
  TGI: 37.2 µM
[23]
  TGI: 9.01 µM
[24]
  TGI: 21.7 µM
[25]
  TGI: 57 µM
[26]
  TGI: 10.4 µM
[27]
  TGI: 14.5 µM
[28]
  TGI: 30.3 µM
[29]
  TGI: > 47.5 µM
[30]
  TGI: 50.9 µM
[31]
  TGI: 47.3 µM
[32]
  TGI: 29.9 µM
[33]
  TGI: 16.5 µM
[34]
  TGI: 53.1 µM
[35]
  TGI: 21.2 µM
[36]
  TGI: 36.2 µM
[37]
  TGI: 5.58 µM
[38]
  TGI: 7.32 µM
[39]
  TGI: 18.5 µM
[40]
  TGI: 4.7 µM
[41]
  TGI: 37.4 µM
[42]
  TGI: 7.5 µM
[43]
  TGI: 24.8 µM
[44]
  TGI: 31.7 µM
[45]
  TGI: 11.1 µM
[46]
  TGI: 21.1 µM
[47]
  TGI: > 44.2 µM
[48]
  TGI: 33 µM
[49]
  TGI: 27.5 µM
[50]
  TGI: 34 µM
[51]
  TGI: 37 µM
[52]
  TGI: 27.8 µM
[53]
  TGI: 27.5 µM
[54]
  TGI: 17.1 µM
[55]
  TGI: 28.4 µM
[56]
  TGI: 34.6 µM
[57]
  TGI: 36.4 µM
[58]
  TGI: 28.6 µM
[59]
  TGI: 11.6 µM

## O=C1OC(CCCN2CCCCC2)(c2ccccc2)CC12CCCC2 (stereo not drawn)
[1]
  TGI: > 100 µM
[2]
  TGI: > 100 µM
[3]
  TGI: > 100 µM
[4]
  TGI: 48.7 µM
[5]
  TGI: 55.7 µM
[6]
  TGI: > 100 µM
[7]
  TGI: > 100 µM
[8]
  TGI: > 100 µM
[9]
  TGI: > 100 µM
[10]
  TGI: > 100 µM
[11]
  TGI: > 100 µM
[12]
  TGI: > 100 µM
[13]
  TGI: > 100 µM
[14]
  TGI: 34.3 µM
[15]
  TGI: > 92.1 µM
[16]
  TGI: > 100 µM
[17]
  TGI: > 100 µM
[18]
  TGI: > 100 µM
[19]
  TGI: > 100 µM
[20]
  TGI: 33.8 µM
[21]
  TGI: > 100 µM
[22]
  TGI: > 100 µM
[23]
  TGI: > 96.3 µM
[24]
  TGI: > 100 µM
[25]
  TGI: > 100 µM
[26]
  TGI: > 100 µM
[27]
  TGI: > 100 µM
[28]
  TGI: > 100 µM
[29]
  TGI: > 100 µM
[30]
  TGI: > 100 µM
[31]
  TGI: > 100 µM
[32]
  TGI: > 100 µM
[33]
  TGI: > 100 µM
[34]
  TGI: > 100 µM
[35]
  TGI: > 100 µM
[36]
  TGI: > 100 µM
[37]
  TGI: > 100 µM
[38]
  TGI: > 100 µM
[39]
  TGI: > 100 µM
[40]
  TGI: > 90.8 µM
[41]
  TGI: > 100 µM
[42]
  TGI: > 100 µM
[43]
  TGI: > 100 µM
[44]
  TGI: 57 µM
[45]
  TGI: > 100 µM
[46]
  TGI: > 92 µM
[47]
  TGI: > 100 µM
[48]
  TGI: 98.4 µM
[49]
  TGI: > 100 µM
[50]
  TGI: > 100 µM
[51]
  TGI: > 100 µM
[52]
  TGI: > 100 µM
[53]
  TGI: > 100 µM
[54]
  TGI: > 100 µM
[55]
  TGI: > 100 µM
[56]
  TGI: > 100 µM
[57]
  TGI: > 100 µM
[58]
  TGI: > 100 µM
[59]
  TGI: > 100 µM
